Literature values as cited in US5209933A, “Long acting calcium channel blocker composition” (Syntex (U.S.A.) Inc., priority 1991, dated 1993).
Read-outs that look alike come from different tables or passages of the source.

Tests used:
calcium channel = conditions: result in words
[1] = result in words
[2] = result in words; remark: listed apart in the source

| Compound | calcium channel blocking activity (calcium channel) | further results |
| --- | --- | --- |
| 4-(3'-nitrophenyl)-2,6-dimethyl-1,4-dihydropyridine-3,5-dicarboxylic acid 3-methyl ester 5-(2-methoxyethyl)ester [nimodipine] | high degree of calcium channel blocking activity |  |
| CCOC(=O)C1=C(C)NC(C)=C(C(=O)OCC)C1c1ccccc1C(F)F [2,6-dimethyl-3,5-diethoxycarbonyl-4-(o-difluoromethylphenyl)-1,4-dichydropyridine] | high degree of calcium channel blocking activity |  |
| CCOC(=O)C1=C(C)NC(C)=C(C(=O)OC)C1c1cccc(Cl)c1Cl (stereo not drawn) [felodipine, 4-(2',3'-dichloro)-2,6-dimethyl-1,4-dihydropyridine-3,5-dicarboxylic acid 3-ethyl ester 5-methyl ester] | high degree of calcium channel blocking activity |  |
| COC(=O)C1=C(C)NC(C)=C(C(=O)OC(C)C)C1c1cccc([N+](=O)[O-])c1 (stereo not drawn) [isopropyl methyl 1,4-dihydro-2,6-dimethyl 4-(3-nitrophenyl)-3,5-pyridine dicarboxylate] | high degree of calcium channel blocking activity |  |
| COC(=O)C1=C(C)NC(C)=C(C(=O)OCCN(C)Cc2ccccc2)C1c1cccc([N+](=O)[O-])c1 (stereo not drawn) [nicardipine, 2,6-dimethyl-4-(3'-nitrophenyl)-1,4-dihydropyridine-3,5-dicarboxylic acid-3-β-(N-benzyl-N-methylamino)-ethyl ester 5-methyl ester] | high degree of calcium channel blocking activity | anti-ischemic properties [1]: possesses anti-ischemic properties; first pass metabolism [2]: extensive first pass metabolism |
| COC(=O)C1=C(C)NC(C)=C(C(=O)OC)C1c1ccccc1[N+](=O)[O-] [nifedipine, 4-(2'-nitrophenyl)-2,6-dimethyl-1,4-dihydropyridine-3,5-dicarboxylic acid dimethyl ester] | high degree of calcium channel blocking activity | calcium channel blocking activity (calcium channel; listed as 4-(2'-nitrophenyl)-2,6-dimethyl-1,4-dihydropyridine-3,5-dicarboxylic acid dimeth): shows calcium channel blocking activity |
| CCCOCCOC(=O)C1=C(C)NC(C)=C(C(=O)OCCOCCC)C1c1cccc([N+](=O)[O-])c1 [niludipine, 4-(3'-nitrophenyl)-2,6-dimethyl-1,4-dihydropyridine-3,5-dicarboxylic acid di-n-propyloxethyl ester] | high degree of calcium channel blocking activity |  |
| COC(=O)C1=C(C)NC(C)=C(C(=O)OCC(C)C)C1c1ccccc1[N+](=O)[O-] (stereo not drawn) [nisoldipine, 4-(2'-nitrophenyl)-2,6-dimethyl-1,4-dihydropyridine-3,5-dicarboxylic acid 3-methyl ester 5-isobutyl ester] | high degree of calcium channel blocking activity |  |
| CCOC(=O)C1=C(C)NC(C)=C(C(=O)OC)C1c1cccc([N+](=O)[O-])c1 (stereo not drawn) [nitrendipine, 4-(3'-nitrophenyl)-2,6-dimethyl-1,4-dihydropyridine-3,5-dicarboxylic acid 3-ethyl ester 5-methyl ester] | high degree of calcium channel blocking activity |  |
